Values joined by “and” are separate entries in the source; they are usually repeats but may differ in a detail not shown here. Identical values can stand only once.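 Where inhibition never reached the appropriate level, the endpoint shown equals the highest concentration tested. Otherwise, values were interpolated linearly from a five-concentration, 48-hour dose response in 96-well plates. GI50 is the concentration that inhibits growth by half. At the TGI there is no net growth.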
What was measured:
Assay in all cases: NCI-60 cell line screen, 48 h
CCRF-CEM leukemia = tested on: CCRF-CEM leukemia
COLO 205 colon = tested on: COLO 205 colon
DU-145 prostate = tested on: DU-145 prostate
HCT-15 colon = tested on: HCT-15 colon
HL-60(TB) leukemia = tested on: HL-60(TB) leukemia
HT29 colon = tested on: HT29 colon
NCI-H226 lung = tested on: NCI-H226 lung
NCI/ADR-RES ovarian = tested on: NCI/ADR-RES ovarian
PC-3 prostate = tested on: PC-3 prostate
RXF 393 renal = tested on: RXF 393 renal
SNB-19 CNS = tested on: SNB-19 CNS
SR leukemia = tested on: SR leukemia
U251 CNS = tested on: U251 CNS

Compound	TGI (CCRF-CEM leukemia)	TGI (COLO 205 colon)	TGI (DU-145 prostate)	TGI (HCT-15 colon)	TGI (HL-60(TB) leukemia)	TGI (HT29 colon)	TGI (NCI-H226 lung)	TGI (NCI/ADR-RES ovarian)	TGI (PC-3 prostate)	TGI (RXF 393 renal)	TGI (SNB-19 CNS)	TGI (SR leukemia)	TGI (U251 CNS)	GI50 (DU-145 prostate)	GI50 (NCI-H226 lung)	GI50 (RXF 393 renal)	GI50 (SNB-19 CNS)	GI50 (SR leukemia)	GI50 (U251 CNS)	GI50 (CCRF-CEM leukemia)
Cc1cc(C)cc(Nc2cc(=O)[nH]c(=O)[nH]2)c1	> 100 µM	> 100 µM	> 100 µM	> 100 µM	> 100 µM	> 100 µM	> 100 µM	> 100 µM	> 100 µM	> 100 µM	> 100 µM	> 100 µM	> 100 µM	–	–	–	–	–	–	–
Cc1ccn2c(=O)cc(-c3ccccc3)nc2c1	> 100 µM	> 100 µM	> 100 µM	> 100 µM	> 100 µM	> 100 µM	> 100 µM	> 100 µM	> 100 µM	> 100 µM	> 100 µM	> 100 µM	> 100 µM	–	–	–	–	–	–	–
Cc1ccc2nc(Cl)c(/C=N/N3C(=O)/C(=C/c4ccccc4S)N=C3c3ccccc3)cc2c1	> 100 µM	> 100 µM	> 100 µM	> 100 µM	61.6 µM	> 100 µM	–	76.5 µM	> 100 µM	–	> 100 µM	60.8 µM	> 100 µM	–	–	–	–	–	–	–
CC(=O)c1ccc2c3c1[C@@H]1O[C@@H]1c1cccc(c1-3)[C@@H]1O[C@H]21	> 100 µM	28.2 µM	23.2 µM	12.5 µM	35 µM	> 27.9 µM	> 95.1 µM	> 74.6 µM	> 52.3 µM	25.8 µM	> 60.9 µM	> 100 µM	19.3 µM	–	–	–	–	–	–	–
O=C1c2ccccc2-c2nc(-c3cccc([N+](=O)[O-])c3)nnc21	> 100 µM	12.6 µM	17 µM	59.9 µM	16.8 µM	5.43 µM	35.9 µM	37 µM	> 100 µM	> 100 µM	> 100 µM	> 100 µM	> 100 µM	–	–	–	–	–	–	–
CCCSc1ccc2[nH]c(/N=C/c3ccco3)cc2c1	80 µM	49.7 µM	> 100 µM	> 100 µM	84.4 µM	> 100 µM	–	> 100 µM	> 100 µM	> 100 µM	> 100 µM	35.7 µM	–	–	–	–	–	–	–	–
COc1cc(CNc2ccc(SC)cc2)cc(OC)c1OC	> 90.6 µM	12.8 µM and 12.4 µM	> 95.7 µM	57.5 µM and 78.2 µM	42.6 µM and 40.2 µM	29.9 µM and 14.5 µM	> 100 µM and 84.7 µM	23.9 µM and > 22.6 µM	> 100 µM and 47.7 µM	39.6 µM and 42.7 µM	> 100 µM	> 100 µM	61.6 µM and 32.9 µM	24.8 µM and 7.82 µM	26.4 µM and 11.9 µM	2.27 µM and 6.5 µM	25.4 µM and 10.1 µM	4.17 µM and 1.63 µM	10.8 µM and 4.13 µM	–
CCC(C#N)NC(=O)NC(C#N)CC (stereo unspecified)	> 100 µM	> 100 µM	> 100 µM	> 100 µM	> 100 µM	> 100 µM	> 100 µM	> 100 µM	> 100 µM	> 100 µM	> 100 µM	> 100 µM	> 100 µM	–	–	–	–	–	–	–
O=c1c2c([N+](=O)[O-])cccc2nc2[nH]c3ccccc3n12	> 75 µM	> 75 µM	> 75 µM	> 75 µM	> 75 µM	> 75 µM	> 75 µM	> 75 µM	> 75 µM	30.4 µM	> 75 µM	> 75 µM	> 75 µM	–	–	–	–	–	–	–
O=C(OCC1OC2OC(c3ccccc3)(n3ccc4c([N+](=O)[O-])ccnc43)OC2C1OC(=O)c1ccccc1)c1ccccc1 (stereo unspecified)	> 100 µM	–	> 100 µM	> 100 µM	> 100 µM	> 100 µM	> 100 µM	> 100 µM	> 100 µM	–	> 100 µM	> 100 µM	> 100 µM	–	–	–	–	–	–	–
CCOC(=O)/C=C(\C(=O)OCC)n1cc(C)c(=O)n(Cc2cnnn2CCCCOC(C)=O)c1=O	4.71 µM	–	> 55.8 µM	> 25.2 µM	6.73 µM	21.3 µM	30.4 µM	35.8 µM	> 71.3 µM	9.1 µM	> 66.5 µM	5.86 µM	49.2 µM	–	–	–	–	–	–	1.32 µM
CC1(CF)SCc2nc3ccccc3n21 (stereo unspecified)	–	> 100 µM	> 100 µM	> 100 µM	> 100 µM	> 100 µM	> 100 µM	> 100 µM	> 100 µM	> 100 µM	> 100 µM	> 100 µM	> 100 µM	–	–	–	–	–	–	–
COc1cc(C2SCC(=O)N2c2ccc(-c3ccc(-n4c(-c5ccccc5)nc5ccccc5c4=O)cc3)cc2)cc(OC)c1OC (stereo unspecified)	> 100 µM	> 100 µM	> 100 µM	> 100 µM	> 100 µM	> 100 µM	> 100 µM	> 100 µM	41.5 µM	–	> 100 µM	> 100 µM	> 100 µM	–	–	–	–	–	–	–
Nc1c(Cl)ncnc1N[C@@H]1C[C@H]1CO	> 100 µM	> 100 µM	> 100 µM	> 100 µM	> 100 µM	> 100 µM	–	> 100 µM	> 100 µM	> 100 µM	> 100 µM	> 100 µM	> 100 µM	–	–	–	–	–	–	–
CCOC(=O)/C=C(/C(=O)OCC)n1ccc(N)nc1=O	76 µM	> 100 µM	> 100 µM	> 100 µM	> 100 µM	> 100 µM	> 100 µM	> 100 µM	> 100 µM	–	> 100 µM	> 100 µM	> 100 µM	–	–	–	–	–	–	–
